According to patent US4202891A, “15-Oxygenated sterol compounds and the use of such compounds to inhibit the biosynthesis of sterols” (priority 1977, dated 1980):

Key:
[1] = system: serum cholesterol; assay: Effect on serum cholesterol levels in rats, daily subcutaneous injection (Examples 41, 42); type: in vivo, rat (male, Sprague-Dawley); conditions: day 3
Summary of the method: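 Male Sprague-Dawley rats (110–190 g, chow-fed) received test sterols subcutaneously once daily, most at 5 mg in 0.25 ml triolein. 5α-Cholest-8(14)-en-3β-ol-15-one was given at 2 mg in 0.2 ml or 5 mg in 0.5 ml olive oil. Controls received vehicle; serum cholesterol was measured periodically, in duplicate.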

[2] = system: HMG-CoA reductase; assay: Reduction of the activity of HMG-CoA reductase in primary cultures of liver cells; type: cell-based, mouse; conditions: read-out: Concentrations Required for 50% Reduction of the Activity of HMG-CoA Reductase
Description: The primary liver cell cultures were prepared from 16-day-old (C57BL/6J fetuses and grown in chemically defined medium (serum-free) as described in the above cited publications. The L cells, a subline of NCTC clone 929 mouse fibroblasts, were grown in chemically defined medium (serum-free) as described in the publications. These L cells are transformed fibroblasts which are regarded as malignant since they will grow as tumors if injected into the mouse strain from which they were initially obtained.
The preparation of steroid-containing media, procedures for assays of the conversion of [1-^14 C]acetate into digitonin-precipitable sterols, fatty acids, and CO2 and methods for the measurement of DNA, protein, and HMG-CoA reductase were as described in the published articles. L cell cultures were preincubated with the 15-oxygenated sterols and their derivatives for 4 hours, then [1-^14 C]acetate was added at a concentration of 4 μmoles per ml (4 μCi per ml); or the L cell cultures were incubated for 5 hours with the 15-oxygenated sterols before they were harvested for determination of microsomal HMG-CoA reductase activity.
Conditions for incubating the 15-oxygenated sterols or their derivatives with liver cell cultures were similar to those described for L cell cultures except that the cultures were incubated with the test compounds for 12 hours before labeled acetate was added or before they were harvested for enzyme assay.
A number of the 15-oxygenated sterols have also been tested with respect to their effects on the activity and/or levels of the enzyme HMG-CoA reductase (3-hydroxy-3-methylglutaryl coenzyme A reductase) in the L cells and in the liver cells. As noted previously, this enzyme catalyzes the reduction of 3-hydroxy-3-methylglutaryl coenzyme A to yield mevalonic acid, an essential intermediate in the biosynthesis of sterols and of a number of other essential compounds in cells.
Using the technique described by Kandutsch and Chen in the article cited in the previous example, the concentrations of various 15-oxygenated sterols required to reduce the levels of activity of HMG-CoA reductase by 50% was determined in the cells of the L cells in culture and of the primary cultures of liver cells.

[3] = 2 mg s.c. once a day in 0.2 ml olive oil
[4] = 5 mg s.c. once a day in 0.5 ml olive oil

## CC(C)CCC[C@@H](C)[C@H]1CC(=O)C2=C3CC[C@H]4C[C@@H](O)CC[C@]4(C)[C@H]3CC[C@@]21C [5α-Cholest-8(14)-en-3β-ol-15-one, 5α-cholest-8(14)-en-3β-ol-15-one]
[1]; [3]
  % Reduction (relative to olive oil-treated rats): 12%
  Serum Cholesterol (Mean ± S.E.M.): 64.5 ± 2.5 mg per 100 ml
[1]; [4]
  % Reduction (relative to olive oil-treated rats): 22%
  Serum Cholesterol (Mean ± S.E.M.): 59.6 ± 2.2 mg per 100 ml
[2]
  IC50: 4 µM
